# Tests used:
# [1] = tested on: WD/DDLS cell lines; experiment: annexin V staining (apoptosis); type: cell-based, human; conditions: PD0332991, 48 hours, any of the seven cell lines
# Method: FIG. 1A-C. […] Mean percentage of BrdU incorporation or annexin V+/7-AAD− cells was calculated from three or more independent experiments. Error bars represent standard deviation (*p<0.05).
# FIG. 13A-B. Nutlin-3a induces apoptosis in all the liposarcoma cell lines. The indicated cell lines were treated with nutlin-3a or vehicle control and extracts were prepared for immunoblotting (A) or annexin V staining (B) forty-eight hours after treatment. Mean percentage of annexin V+/7-AAD− cells was calculated from three or more independent experiments. Error bars represent standard deviation (*p<0.05).
# Cells were stained with BrdU (20 μM for two hours) or annexin V as previously described (22, 48). […] was determined by staining with propidium iodine and FACS analyses (49).
# [2] = tested on: seven WD/DDLS cell lines; experiment: cell size, phalloidin staining and flow cytometry; type: cell-based, human; conditions: continued treatment, all seven cell lines
# Method: FIGS. 10A-C. […] Cells were plated at a concentration of 25,000 per well in a 4-well chamber slides (Lab-Tek) and treated for seven days with drug or shRNA as described above and stained for senescence-associated β-galactosidase (Cell Signaling kit #9860). Cell number was quantitated by DAPI staining and β-galactosidase staining quantitated as a proportion of total cells. Senescence associated heterochromatic foci were quantitated after cells were fixed with 4% paraformaldehyde, permeabilized with 0.1% Triton, blocked with 2% FBS, and stained with antibodies against HP1γ (1:5000 dilution, 2MOD-1G6 Millipore). Senescent cells were identified by immunofluorescence after treatment of slides with anti-mouse secondary antibodies and quantitation of focal SAHF as a percent of total cells (Leica Upright Confocal SP5 confocal microscope). Actin was marked using phalloidin staining (1:500, Invitrogen) and cells were counterstained with DAPI. Cell area was measured by with Metamorph software to calculate relative area per cell.
# [3] = tested on: CHK2 mobility and KAP1 phosphorylation in WD/DDLS cell lines; experiment: markers of ATM activity by immunoblot; type: cell-based, human; conditions: LS8817, LS141, LS8107, LS8313 and LS7785-1
# Text: Extracts from control and irradiated mouse embryo fibroblasts were included as a control. Tubulin is a control. (B) γH2AX and 53BP1 foci were scored in the indicated cell lines. As per (Doll et al., 2009; […] et al., 2012) having a cell with greater than 10 foci (white) is considered positive for DNA damage. As expected for WD/DDLS cell lines the basal level of DNA damage was quite high.
# [4] = tested on: E2F7 in WD/DDLS cell lines; experiment: E2F7 levels by immunoblot; type: cell-based, human; conditions: 48 hours
# Text: FIG. 24. […] Tubulin is a loading control. This experiment was repeated at least twice for each cell line.
# [5] = tested on: MDM2 in LS8107 and LS7785-1 cells; experiment: MDM2 levels by immunoblot, non-responder cells; type: cell-based, human; conditions: non-responders LS8107 and LS7785-1; two days
# Method: (A) Immunoblot. […] Tubulin was a loading control. (B) Immunoblot.
# (§1) Antibodies against CDK4 (3F121), MDM2 (N-20 and SMP14), total RB (IF8), Cyclin A (H432), p16 (C20), p53 (DO-1 and Bp53-12), tubulin (C20) and FLAG (M2) were obtained from Santa Cruz Biotechnology, phospho-Rb 780 (#9307) from Cell Signalling, and ARF (3642) from Abeam, HAUSP (A300-033A) from Bethyl Laboratories. Treated cells were lysed with buffer composed of 50 mM Tris-HCl, pH7.4, 250 mM NaCl, 5 mM EDTA, 0.5% NP40, 2 mM PMSF, and supplemented with protease inhibitors. Eighty micrograms of protein were resolved by SDS-PAGE and transferred to PVDF membranes. Membranes were incubated overnight with antibodies (1:1000). […] Pre-treatment biopsies were collected within two weeks of the first dose and post-treatment biopsies collected after at last three weeks of treatment. Extracts were prepared in 50 mM Tris-HCl, pH7.4, 150 mM NaCl, 1 mM EDTA, 1% NP40, 0.25% sodium deoxycholate and supplemented with mini-protease inhibitor cocktail (Roche). Tumor response was assessed by reference radiologist by CT scan every six weeks for 36 weeks, and every 12 weeks thereafter.
# [6] = tested on: HAUSP and MDM2 interaction in LS8817, LS0082, LS7785-1 and LS7785-10 cells; experiment: co-immunoprecipitation of HAUSP and MDM2; type: cell-based, human; conditions: two days PD0332991, then 5 μM MG132 for 2 hours; detected in untreated cells
# Method: FIG. 25A-D. Turnover of MDM2 is regulated post-translationally. […] Extracts were prepared and MDM2 was immunoprecipitated and the presence of HAUSP and MDM2 in the precipitates were determined by immunoblot. IgG was used as a non-specific antibody control for the immunoprecipitation. […] Tubulin is a loading control. HAUSP levels were reduced with shRNA in the indicated cells lines and the effect on protein expression (C) and the accumulation of senescence-associated (3-galactosidase positive cells measured (D). The mean and standard deviation was compiled from at least two independent experiments with each cell line and a representative immunoblot is shown.
# [7] = tested on: LS8817 cells with enforced MDM2 expression; experiment: PD0332991 response with enforced MDM2 expression; type: cell-based, human
# Method: (A) Immunoblot. […] Tubulin was a loading control. (B) Immunoblot. […] This experiment was carried out with three different pools of transductants multiple times (*p<0.05, **p<0.01). r^2 is calculated as the best-fit correlation.
# FIG. 17. […] Cells transduced with an RFP expressing virus were used as a control.
# For MDM2 and Rb expression, cells were infected with a lentivirus (pLOC, Open Biosystems) encoding either MDM2, MDM2 V75A, MDM2 I440A, MDM2 C464A, MDM2 Δ254-264, MDM2 L468A, MDM2 Δ464-471, MDM2 P476A, RB, LP-RB, PSM-RB or RFP. Transduced cells were selected for in media containing 3 μg/ml blasticidin and selection was maintained throughout the experiment.
# [8] = tested on: WD/DDLS; experiment: phase II clinical trial (NCT01209598), tumor response by CT scan, RECIST; type: in vivo, human
# Method: FIG. 7. […] GAPDH serves as a loading control.
# as §1
# [9] = tested on: WD/DDLS; conditions: cited from earlier work
compound,measurement,setting,value
CC(=O)c1c(C)c2cnc(Nc3ccc(N4CCNCC4)cn3)nc2n(C2CCCC2)c1=O [PD0332991],"annexin V staining, a marker of apoptosis",[1],did not induce a significant change
same,cell size / cell volume,[2],enlarged
same,"CHK2 mobility or KAP1 phosphorylation, markers of ATM activity",[3],did not induce significant changes
same,E2F7 protein amount,[4]; LS8107,did not change
same,E2F7 protein,"[4]; LS8817, LS0082 and LS8313",induced accumulation
same,MDM2 reduction,[5],not
same,interaction of HAUSP and MDM2 detected by co-immunoprecipitation,[6],not in any of the cells treated
same,"cell cycle exit (phosphorylated Rb, cyclin A, BrdU incorporation)",[7],not affected
same,p53 levels,[7],still reduced
same,SA-β-gal accumulation,[7]; seven days,failed to accumulate
same,patients who performed well on the drug (RECIST),[8]; of nine patients with pre- and post-treatment biopsies,five
same,tumor size decrease,"[8]; patient 1, RECIST response, as of March 2013, 125 mg daily for 21 days, seven days of rest",greater than 60%
same,patients with prolonged stable disease,[9]; 30 WD/DDLS patients,66%
same,time at which one patient achieved a RECIST partial response,[9]; one patient,74 weeks
same,myelosuppression,[9]; patients,common
same,tolerability,[9]; patients,generally well-tolerated
same,decrease in tumor size,"[9]; three other patients, favorable response that did not meet RECIST",at least 10%

# — patent US9889135B2, “Companion diagnostic for CDK4 inhibitors” (Memorial Sloan-Kettering Cancer Center, priority 2013, dated 2018)
